{
  "source": "paper PMC8883597",
  "about": "(Xenobiotica; the fate of foreign compounds in biological …, 2021)",
  "key": {"[1]": {"conditions": "rat, in vivo"}, "[2]": {"experiment": "Toxicokinetics in plasma after a single gavage administration", "conditions": "male rats"}, "[3]": {"conditions": "male, Sprague Dawley, rat, in vivo, iv, 2.25 mg/kg"}, "[4]": {"system": "rats", "conditions": "ref Hirata-Koizumi et al., 2008b, cited from earlier work"}, "[5]": {"conditions": "male, Sprague Dawley, rat, in vivo"}, "[6]": {"conditions": "rat, in vivo, 10 mg/kg; cited from earlier work"}, "[7]": {"conditions": "male, Sprague Dawley, po, 30 mg/kg"}, "[8]": {"conditions": "male, Sprague Dawley, po, 300 mg/kg"}, "[9]": {"conditions": "male, Sprague Dawley, 300 mg/kg"}},
  "note": "Where two headings read alike, the source gives them in different places.",
  "data": [
    {"molecule": "Cc1cc(-n2nc3ccc(Cl)cc3n2)c(O)c(C(C)(C)C)c1", "note": "[Bumetrizole, 2-(5-chloro-2H-1,2,3-benzotriazol-2-yl)-6-(1,1-dimethylethyl)-4-methylphenol]", "values": [
      {"measurement": "time points where plasma concentrations were below LOD", "setting": "[1]; male, Sprague Dawley, 30 mg/kg", "result": 0.0333, "unit": "h"},
      {"measurement": "AUC", "setting": "[1]; [7]", "result": "21000 ± 5300", "unit": "ng·h/mL"},
      {"measurement": "Cmax", "setting": "[1]; [7]", "result": "2020 ± 490", "unit": "ng/mL"},
      {"measurement": "Half-life (beta half-life)", "setting": "[1]; [7]", "result": "48.4 ± 116", "unit": "h"},
      {"measurement": "Tmax", "setting": "[1]; [7]", "result": "3.08 ± 0.77", "unit": "h"},
      {"measurement": "AUC", "setting": "[1]; [8]", "result": "41600 ± 11600", "unit": "ng·h/mL"},
      {"measurement": "Cmax", "setting": "[1]; [8]", "result": "2450 ± 710", "unit": "ng/mL"},
      {"measurement": "Half-life (beta half-life)", "setting": "[1]; [8]", "result": "37.5 ± 401", "unit": "h"},
      {"measurement": "Tmax", "setting": "[1]; [8]", "result": "5.06 ± 1.24", "unit": "h"}
    ]},
    {"molecule": "Cc1ccc(O)c(-n2nc3ccccc3n2)c1", "note": "[Drometrizole, 2-(2H-Benzotriazol-2-yl)-4-methylphenol]", "values": [
      {"measurement": "Half-life (beta half-life)", "setting": "[1]; male, Sprague Dawley, 30 mg/kg", "result": "1120 ± 5780", "unit": "h"},
      {"measurement": "Cmax", "setting": "[1]; [7]", "result": "138 ± 1900", "unit": "ng/mL"},
      {"measurement": "Tmax", "setting": "[1]; [7]", "result": "0.0196 ± 24.6", "unit": "h"},
      {"measurement": "AUC", "setting": "[1]; [8]", "result": "29800 ± 14700", "unit": "ng·h/mL"},
      {"measurement": "Cmax", "setting": "[1]; [8]", "result": "358 ± 26", "unit": "ng/mL"},
      {"measurement": "Half-life (beta half-life)", "setting": "[1]; [8]", "result": "103 ± 72", "unit": "h"},
      {"measurement": "plasma elimination half-life (beta half-life)", "setting": "[1]; [8]", "result": "103 to 1120", "unit": "h"}
    ]},
    {"molecule": "CC(C)(C)CC(C)(C)c1ccc(O)c(-n2nc3ccccc3n2)c1", "note": "[Octrizole, 2-(2H-Benzotriazol-2-yl)-4-(1,1,3,3-tetramethylbutyl)phenol]", "values": [
      {"measurement": "AUC", "setting": "[1]; [7]", "result": "5980 ± 1950", "unit": "ng·h/mL"},
      {"measurement": "Cmax", "setting": "[1]; [7]", "result": "561 ± 170", "unit": "ng/mL"},
      {"measurement": "Half-life (beta half-life)", "setting": "[1]; [7]", "result": "56.8 ± 233", "unit": "h"},
      {"measurement": "Tmax", "setting": "[1]; [7]", "result": "3.71 ± 1.08", "unit": "h"},
      {"measurement": "AUC", "setting": "[1]; [8]", "result": "30000 ± 7400", "unit": "ng·h/mL"},
      {"measurement": "Cmax", "setting": "[1]; [8]", "result": "3590 ± 850", "unit": "ng/mL"},
      {"measurement": "Half-life (beta half-life)", "setting": "[1]; [8]", "result": "21.4 ± 18.2", "unit": "h"},
      {"measurement": "time points where plasma concentrations were below LOD", "setting": "[2]; single gavage 300 mg/kg group", "result": 0.0333, "unit": "h"},
      {"measurement": "AUC", "setting": "[3]", "result": "3510 ± 440", "unit": "ng·h/mL"},
      {"measurement": "Cmax", "setting": "[3]", "result": "20600 ± 7800", "unit": "ng/mL"},
      {"measurement": "Half-life (gamma half-life)", "setting": "[3]", "result": "15.4 ± 2.4", "unit": "h"}
    ]},
    {"molecule": "CC(C)(C)c1ccc(O)c(-n2nc3ccccc3n2)c1", "note": "[ditBu-BZT, 2-(2H-benzotriazol-2-yl)-4-tert-butylphenol]", "values": [
      {"measurement": "toxicity finding", "setting": "[4]; gavage 0.1–12.5 mg/kg for 13 and 52 weeks", "result": "enlarged livers accompanied by histopathological changes"},
      {"measurement": "toxicity finding at the highest dose", "setting": "[4]; highest dose", "result": "Increased relative organ weights (e.g., brain and testes) and hematological effects"}
    ]},
    {"molecule": "CCC(C)(C)c1cc(-n2nc3ccccc3n2)c(O)c(C(C)(C)CC)c1", "note": "[ditPe-BZT, 2-(2H-Benzotriazol-2-yl)-4,6-bis(1,1-dimethylpropyl)phenol]", "values": [
      {"measurement": "Oral bioavailability", "setting": "[5]; 300 mg/kg", "result": 5.53, "unit": "%"},
      {"measurement": "Tmax", "setting": "[1]; [7]", "result": "2.96 ± 1.10", "unit": "h"},
      {"measurement": "Half-life (beta half-life)", "setting": "[1]; [8]", "result": "17.1 ± 53.3", "unit": "h"}
    ]},
    {"molecule": "CC(C)(C)c1ccc(O)c(-n2nc3ccccc3n2)c1", "note": "[tBu-BZT, 2-(2H-Benzotriazol-2-yl)-4-tert-butylphenol]", "values": [
      {"measurement": "increase in AUC with a 10-fold increase in the dose", "setting": "[2]; gavage 30 to 300 mg/kg", "result": "dose-proportional"}
    ]},
    {"molecule": "CC(C)(C)c1cc(CCC(=O)OCCCCCCOC(=O)CCc2cc(-n3nc4ccccc4n3)c(O)c(C(C)(C)C)c2)cc(-n2nc3ccccc3n2)c1O", "note": "[tBuPrHexEst-BZT, 3-(2H-benzotriazol-2-yl)-5-(1,1-dimethylethyl)-4-hydroxybenzenepropanoic acid, 1,6-hexanediyl ester]", "values": [
      {"measurement": "Tmax (time at which Cmax was achieved)", "setting": "[6]", "result": "1 to 2", "unit": "h"},
      {"measurement": "apparent half-life", "setting": "[6]", "result": "~ 12 h"},
      {"measurement": "maximum blood concentration (Cmax)", "setting": "[6]", "result": "< 0.13", "unit": "µg/g"}
    ]},
    {"molecule": "COC(=O)CCc1cc(-n2nc3ccccc3n2)c(O)c(C(C)(C)C)c1", "note": "[tBuPrMeEst-BZT, 3-(2H-benzotriazol-2-yl)-5-(1,1-dimethylethyl)-4-hydroxybenzenepropanoic acid, methyl ester]", "values": [
      {"measurement": "Tmax (time at which Cmax was achieved)", "setting": "[6]", "result": "1 to 2", "unit": "h"},
      {"measurement": "maximum blood concentration (Cmax)", "setting": "[6]", "result": "< 2", "unit": "µg/g"}
    ]},
    {"molecule": "CCCCCCCCOC(=O)CCc1cc(-n2nc3ccccc3n2)c(O)c(C(C)(C)C)c1", "note": "[tBuPrOcEst-BZT, 3-(2H-Benzotriazol-2-yl)-5-(1,1-dimethylethyl)-4-hydroxybenzenepropanoic acid, octyl ester]", "values": [
      {"measurement": "Oral bioavailability", "setting": "[5]; 30 mg/kg", "result": 23.0, "unit": "%"},
      {"measurement": "Oral bioavailability", "setting": "[5]; 300 mg/kg", "result": 16.0, "unit": "%"},
      {"measurement": "AUC", "setting": "[1]; male, Sprague Dawley, 30 mg/kg", "result": "42300 ± 11500", "unit": "ng·h/mL"},
      {"measurement": "Cmax", "setting": "[1]; male, Sprague Dawley, 30 mg/kg", "result": "12800 ± 3100", "unit": "ng/mL"},
      {"measurement": "Half-life (beta half-life)", "setting": "[1]; male, Sprague Dawley, 30 mg/kg", "result": "9.53 ± 1.73", "unit": "h"},
      {"measurement": "Tmax", "setting": "[1]; male, Sprague Dawley, 30 mg/kg", "result": "1.07 ± 0.30", "unit": "h"},
      {"measurement": "AUC", "setting": "[1]; [9]", "result": "294000 ± 85000", "unit": "ng·h/mL"},
      {"measurement": "Cmax", "setting": "[1]; [9]", "result": "47800 ± 13500", "unit": "ng/mL"},
      {"measurement": "Half-life (beta half-life)", "setting": "[1]; [9]", "result": "13.6 ± 6.4", "unit": "h"},
      {"measurement": "Tmax", "setting": "[1]; [9]", "result": "1.91 ± 0.56", "unit": "h"},
      {"measurement": "Cmax", "setting": "[1]; [8]", "result": "12800 to 47800", "unit": "ng/mL"},
      {"measurement": "Tmax", "setting": "[1]; [8]", "result": "1.07 to 1.91", "unit": "h"},
      {"measurement": "plasma elimination half-life (beta half-life)", "setting": "[1]; [8]", "result": "9.53 to 13.6", "unit": "h"},
      {"measurement": "concentration of the parent in plasma", "setting": "[1]; po", "result": "mostly below LOD"},
      {"measurement": "AUC", "setting": "[3]", "result": "13800 ± 300", "unit": "ng·h/mL"},
      {"measurement": "Cmax", "setting": "[3]", "result": "22400 ± 900", "unit": "ng/mL"},
      {"measurement": "Half-life (gamma half-life)", "setting": "[3]", "result": "19.2 ± 1.1", "unit": "h"}
    ]}
  ]
}
